From patent US10934298B2, “Substituted pyrazolo[1,5-a]pyrimidines for the treatment of medical disorders” (BIAL—BioTech Investments, Inc., priority 2016, dated 2021)

Biological target: T1, glucocerebrosidase (Gcase) (Homo sapiens, UniProt P04062)
T1 construct: micellar solution containing 10 nM GCase and 100 nM saposin C
T1 sequence (P04062 40-536): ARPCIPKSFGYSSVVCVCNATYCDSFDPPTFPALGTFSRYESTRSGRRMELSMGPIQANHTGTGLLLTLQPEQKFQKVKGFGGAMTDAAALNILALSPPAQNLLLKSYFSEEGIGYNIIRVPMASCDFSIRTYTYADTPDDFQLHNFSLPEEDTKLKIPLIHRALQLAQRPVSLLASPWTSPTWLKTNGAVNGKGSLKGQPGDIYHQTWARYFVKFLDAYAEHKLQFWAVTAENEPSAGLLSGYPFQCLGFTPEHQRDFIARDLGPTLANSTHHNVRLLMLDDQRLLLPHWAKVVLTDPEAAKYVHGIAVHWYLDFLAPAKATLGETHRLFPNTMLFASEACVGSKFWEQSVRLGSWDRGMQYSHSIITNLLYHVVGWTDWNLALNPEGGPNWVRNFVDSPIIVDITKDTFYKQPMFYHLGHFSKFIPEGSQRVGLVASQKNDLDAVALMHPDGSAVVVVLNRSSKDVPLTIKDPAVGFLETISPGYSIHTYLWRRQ
Experiment: Glucocerebrosidase (Gcase) activation assay with 4-methylumbelliferyl-beta-D-glucopyranoside substrate, saposin C and phosphatidylserine/triton micelles, fluorescence readout
Assay type: biochemical
Method: The ability of exemplary compounds to activate glucocerebrosidase (Gcase) was measured.
A 484 μL aliquot of a 1.0 mg/mL solution of phosphatidylserine (PS) (Sigma P7769) in chloroform was evaporated under a stream of nitrogen for 1 hour. The lipid film was dissolved over 4 minutes of vigorous vortexing in 40 mL of 176 mM K2HPO4/50 mM citric acid (pH 4.7) containing 7.5 μL of triton X-100, resulting in a mixed micellar preparation with a composition of 0.32 mM triton and 0.37 mol % PS. 4-Methylumbelliferyl-beta-D-glucopyranoside (ACROS-337025000) was dissolved in the micellar solution to a final concentration of 2 mM for use as the reaction substrate.
Test compounds were diluted to the desired concentrations with dimethylsulfoxide (DMSO) from 10 mM stocks, and 0.41 μL of the DMSO compound mixture was added to 100 μL of micellar solution containing 10 nM GCase and 100 nM saposin C (Enzo ALX-201-262-C050). Pre-incubation was allowed to occur for 30 minutes at room temperature, after which the reaction was initiated by combining 25 μL of substrate solution with 25 μL of compound/GCase/saposin mixture. The reaction proceeded for 15 minutes at room temperature and was stopped by adding 150 μL of 1M glycine, pH 12.5. The endpoint of the reaction was monitored by measuring fluorescence intensity (excitation: 365 nm; emission: 440 nm) on a SpectraMax i3 instrument (Molecular Devices). Test compounds were screened at 1.0 and 0.1 μM final concentration, and subsequent 8-point dose response curves were obtained using 3-fold dilutions from a maximum final concentration of 5 μM.

Structure (SMILES)	Percent Gcase Activation, 0.1 μM Test Compound (test compound at 0.1 μM)	Percent Gcase Activation, 1 μM Test Compound (test compound at 1.0 μM)	further results
Cc1cc(-c2cccc(F)n2)nc2c(C(=O)N[C@@H](C)C3CC3)cnn12 [III-134]	** (Gcase activation in the range of 10% up to 20%)	+++ (Gcase activation greater than 60%)	–
Cc1cc(-c2cncc(Cl)c2)nc2c(C(=O)NC(C)(C)C3CC3)cnn12 [III-292]	–	–	Percent Gcase Activation, 0.1 μM Test Compound (0.1 μM test compound): *** (greater than 20% Gcase activation); Percent Gcase Activation, 1 μM Test Compound (1 μM test compound): +++ (Gcase activation greater than 60%)
COc1cc(C#N)cc(-c2cc(C)n3ncc(C(=O)N[C@@H](C)C4CC4)c3n2)c1 [III-129]	*** (greater than 20% Gcase activation)	+++ (Gcase activation greater than 60%)	–
COc1cc(-c2cc(C)n3ncc(C(=O)NC(C4CC4)C(F)(F)F)c3n2)ccc1F (stereo not shown) [III-147]	*** (greater than 20% Gcase activation)	+++ (Gcase activation greater than 60%)	–
Cc1nscc1-c1cc(C)n2ncc(C(=O)N[C@@H](C3CC3)C(F)(F)F)c2n1 [III-390]	–	–	Percent Gcase Activation, 0.1 μM Test Compound (0.1 μM test compound): *** (greater than 20% Gcase activation); Percent Gcase Activation, 1 μM Test Compound (1 μM test compound): +++ (Gcase activation greater than 60%)
COc1cc(-c2cc(C)n3ncc(C(=O)NC(C)C(F)(F)F)c3n2)ccc1F (stereo not shown) [III-148]	** (Gcase activation in the range of 10% up to 20%)	+++ (Gcase activation greater than 60%)	–
Cc1cc(C)n2ncc(C(=O)N[C@H]3CC[C@H](OC(C)(C)C)CC3)c2n1 [III-190]	* (less than 10% Gcase activation)	+ (less than 30% Gcase activation)	–
Cc1cc(-c2cccc(C(N)=O)c2)nc2c(C(=O)NC(C3CC3)C(F)(F)F)cnn12 (stereo not shown) [III-73]	–	–	Percent Gcase Activation, 0.1 μM Test Compound (0.1 μM test compound, Table 3A): *** (greater than 20% Gcase activation); Percent Gcase Activation, 1 μM Test Compound (1 μM test compound, Table 3A): +++ (Gcase activation greater than 60%)
COc1c(C#N)cccc1-c1cc(C)n2ncc(C(=O)NC(C3CC3)C(F)(F)F)c2n1 (stereo not shown) [III-141]	* (less than 10% Gcase activation)	+++ (Gcase activation greater than 60%)	–
Cc1oc(C(C)C)nc1-c1cc(C)n2ncc(C(=O)N[C@H](C3CC3)C(F)(F)F)c2n1 [III-332]	–	–	Percent Gcase Activation, 0.1 μM Test Compound (0.1 μM test compound): *** (greater than 20% Gcase activation); Percent Gcase Activation, 1 μM Test Compound (1 μM test compound): +++ (Gcase activation greater than 60%)
Cc1cc(N2CCOCC2)nc2c(C(=O)NC(C)C3CC3)cnn12 (stereo not shown) [III-58]	–	–	Percent Gcase Activation, 0.1 μM Test Compound (0.1 μM test compound, Table 3A): * (less than 10% Gcase activation); Percent Gcase Activation, 1 μM Test Compound (1 μM test compound, Table 3A): + (less than 30% Gcase activation)
Cc1cc(-c2cccc(F)n2)nc2c(C(=O)N[C@H](C)C3CC3)cnn12 [III-135]	** (Gcase activation in the range of 10% up to 20%)	+++ (Gcase activation greater than 60%)	–
COc1cc(F)cc(-c2cc(C)n3ncc(C(=O)N[C@@H](C)C4CC4)c3n2)c1 [III-137]	*** (greater than 20% Gcase activation)	+++ (Gcase activation greater than 60%)	–
Cc1cc(-c2cccc(C#N)c2)nc2c(C(=O)NC(C)(C)C3CC3)cnn12 [III-71]	–	–	Percent Gcase Activation, 0.1 μM Test Compound (0.1 μM test compound, Table 3A): *** (greater than 20% Gcase activation); Percent Gcase Activation, 1 μM Test Compound (1 μM test compound, Table 3A): +++ (Gcase activation greater than 60%)
Cc1cc(-c2cccc(Cl)n2)nc2c(C(=O)N[C@@H](C)C3CC3)cnn12 [III-131]	*** (greater than 20% Gcase activation)	+++ (Gcase activation greater than 60%)	–
Cc1cc(-n2ccc(Cl)n2)nc2c(C(=O)NC(C3CC3)C(F)(F)F)cnn12 (stereo not shown) [III-107]	*** (greater than 20% Gcase activation)	+++ (Gcase activation greater than 60%)	–
Cc1cc(C(F)(F)F)nc2c(C(=O)NC(C)(C)C3CC3)cnn12 [III-68]	–	–	Percent Gcase Activation, 0.1 μM Test Compound (0.1 μM test compound, Table 3A): * (less than 10% Gcase activation); Percent Gcase Activation, 1 μM Test Compound (1 μM test compound, Table 3A): + (less than 30% Gcase activation)
